From US9993522B2, “Treatment of pain by inhibition of USP5 de-ubiquitinase” (UTI LIMITED PARTNERSHIP, priority 2012, dated 2018)
Residues, ends and D or L forms follow the SMILES beside them. *: point of attachment. Cbz = O=C(OCc1ccccc1)*

Legend:
[1] = test system: CFA-injected mice; assay: CFA-induced persistent inflammatory pain, mechanical hyperalgesia; details: acute delivery, 10.0 μg/i.t.
Description: Mechanical hyperalgesia was measured using the digital plantar aesthesiometer (DPA, UgoBasile, Varese, Italy). […] Mice were allowed to acclimate for a period of at least 90 minutes. The DPA device was positioned beneath the animal, so that the filament was directly under the plantar surface of the ipsilateral hind paw. Each paw was tested three times per session.

[2] = 10.0 μg/i.t.
Description: Injections were given to fully conscious mice using the method described by Hylden and Wilcox (Hylden & Wilcox, 1980). Animals were manually restrained, the dorsal fur of each mouse was shaved, the spinal column was arched, and a 30-gauge needle attached in a PE20 Polyethylene tube to a 25-μl Hamilton microsyringe (Hamilton, Birmingham, UK) was inserted into the subdural space between the L4 and L5 vertebrae. Correct i.t. positioning of the needle tip was confirmed by a characteristic tail-flick response of animal. Intrathecal injections of volumes between 2-10 μl were given over a period between 5-10 seconds.

[3] = test system: Cav3.2 channels; assay: Cav3.2 ubiquitination in cultured mouse DRG neurons (immunoprecipitation, anti-ubiquitin western blot); format: cell-based; details: 5 μM MG132 overnight
[4] = test system: Cav3.2 channels; assay: Ubiquitination state of Cav3.2 channels in CAD cells with proteasomal inhibitor (western blot densitometry); format: cell-based; details: 5 μM MG132, CAD cells, mean±SEM
Description: Human embryonic kidney tsA-201 cells were cultured as described previously (Altier et al., 2006). Cells were transfected with calcium phosphate and used for biochemical analysis 72 hrs post-transfection. Neuronal derived CAD cells were cultured as described previously (Altier et al., 2011). These cells were transfected with Lipofectamine 2000 (Invitrogen) and used for biochemical and electrophysiological experiments 48-72 hrs post-transfection. Both tsA-201 and CAD cells were preincubated with 5 μM MG132 (MG) or 100 μM Chloroquine (Chl) overnight.
Cells were lysed in RIPA buffer (in mM; 50 Tris, 100 NaCl, 1% triton X-100, 1% NP-40, 0.2% SDS, 0.1% NaDeoxycholate, 20 NaF, 10 Na4P2O7 pyrophosphate, 10 EDTA+protease inhibitor cocktail, pH 7.5). A modified RIPA buffer (in mM; 50 Tris, 100 NaCl, 0.2% (v/v) triton X-100, 0.2% (v/v) NP-40, 10 EDTA+protease inhibitor cocktail, with or without 5 μM MG132 pH 7.5) was used to co-immunoprecipitate Cav3.2 channels with USP5 protein. Lysates from tsA-201, CAD cells and rat brain tissue were prepared by sonicating samples at 60% pulse for 10 seconds and by centrifugation at 13,000 rpm for 15 minutes at 4° C. […] Western blot quantification was performed using densitometry analysis (Quantity One-BioRad software). […]

SMILES: COCC(=O)O[C@]1(CCN(C)CCCc2nc3ccccc3[nH]2)CCc2cc(F)ccc2[C@@H]1C(C)C [mibefradil]
- pain in the CFA model (mechanical withdrawal threshold) [1]: significantly attenuate pain in the CFA model

SMILES: CC(C)C[C@H](NC(=O)[C@H](CCCNC(=N)N)NC(=O)[C@H](CCCNC(=N)N)NC(=O)[C@H](CC(C)C)NC(=O)[C@H](CCCNC(=N)N)NC(=O)[C@H](CCCCN)NC(=O)[C@H](CCC(=O)O)NC(=O)[C@H](CCC(=O)O)NC(=O)[C@H](CCCNC(=N)N)NC(=O)[C@H](CCCNC(=N)N)NC(=O)[C@H](CCCNC(=N)N)NC(=O)[C@H](C)NC(=O)[C@H](CCC(=O)O)NC(=O)[C@H](CCCNC(=N)N)NC(=O)[C@H](CCCNC(=N)N)NC(=O)[C@H](CCCNC(=N)N)NC(=O)[C@H](CCC(N)=O)NC(=O)[C@H](CCCNC(=N)N)NC(=O)[C@H](CCCNC(=N)N)NC(=O)[C@H](CCCCN)NC(=O)[C@H](CCCCN)NC(=O)[C@H](CCCNC(=N)N)NC(=O)CNC(=O)[C@@H](N)Cc1ccc(O)cc1)C(=O)N[C@@H](CCC(=O)O)C(=O)N[C@@H](CCCNC(=N)N)C(=O)N[C@@H](CCCNC(=N)N)C(=O)N[C@@H](CCCNC(=N)N)C(=O)N[C@@H](CCCNC(=N)N)C(=O)N[C@@H](CCCCN)C(=O)N[C@@H](C)C(=O)N[C@@H](CCC(N)=O)C(=O)O [Tat-3.2-III-IV linker peptide] (H-YGRKKRRQRRREARRREEKRLRRLERRRRKAQ-OH)
- abnormal behavior ([2]; 2.5 μg/μl over 10 seconds): no abnormal behavior was observed
- mice that developed shaking behavior ([2]; 5 μg/μl over 5 seconds): 3 out of 10
- time to termination of shaking behavior after injection ([2]; 5 μg/μl over 5 seconds): ≤ 15 min

SMILES: CC(C)C[C@@H](C=O)NC(=O)[C@H](CC(C)C)NC(=O)[C@H](CC(C)C)NC(=O)OCc1ccccc1 [MG132] (Cbz-Leu-Leu-Leu-aldehyde)
- Cav3.2 ubiquitination signal [3]: only from immunoprecipitates from cells treated with 5 μM MG132
- ratio of ubiquitinated vs non-ubiquitinated channels (Ub-Cav3.2 channels/Cav3.2 channels), higher MW band (b) ([4]; n=4): 2.80±0.5
- ratio of ubiquitinated vs non-ubiquitinated channels (Ub-Cav3.2 channels/Cav3.2 channels), lower MW band (a) ([4]; n=5): 3.2±1.1
